Reference: patent publication US20230331679A1, “NAPHTHALENE MONOIMIDE COMPOUNDS AND METHODS THEREOF” (JAWAHARLAL NEHRU CENTRE FOR ADVANCED SCIENTIFIC RESEARCH, priority 2020, published 2023)

Columns and labels:
[1] = Serum stability under in vitro conditions (absorbance); type: in vitro ADME; details: WT mouse blood serum, 0.5, 1, 2 and 6 h at 37° C.
[2] = target: T1, Aβ42 fibrillar aggregates (Homo sapiens, UniProt P05067); assay: ThT binding assay, dissolution of preformed Aβ42 fibrils; type: biochemical; details: after sixth day of incubation
T1 construct: commercially available β-amyloid peptide (1-42), human; purchased marck (so in the source) PP69-.025 mg
Method: (§1) Monomeric form of Aβ42 peptide was prepared by dissolving 0.25 mg of commercially available β-amyloid peptide (1-42), human (cat: PP69-.025 mg), marck peptide in 250 µL of hexafluoro-2-propanol (HFIP) solvent to obtain a Aβ42 solution. This solution was incubated at room temperature for 1 hour, further to which the HFIP solvent was removed by nitrogen gas flow to obtain the monomeric Aβ42 peptide. To prepare a fibrillar sample of Aβ42 peptide, 0.025 mg of Aβ42 peptide was dissolved in […] of PBS buffer (pH = 7.4; contains 2% of DMSO or 100 mM NaOH) to obtain a monomeric Aβ42 solution and the peptide concentration in this solution was calculated through UV-Visible absorbance studies (ε = 1450 cm^-1 M^-1). The Aβ42 monomeric solution was incubated for 5 days in PBS buffer (pH = 7.4) to allow for the full phase formation of Aβ42 fibrils. The presence of Aβ42 fibrils was further confirmed by ThT assay.
(§2) The ability of NMI compounds (TGR63, TGR64 and TGR65) to prevent Aβ42 fibrillar assembly (inhibition) and to break down the preformed fibrils (dissolution) was evaluated using thioflavin (ThT) binding assay. Aβ42 fibrils at a concentration of 10 µM and its aggregates, were used to study the effect of NMI compounds (TGR63, TGR64 and TGR65) at varying concentrations on both inhibition and dissolution assays. For the inhibition assay, all the NMI compounds (TGR63, TGR64 and TGR65) were added independently to Aβ peptide (10 µM) at 0 h of the experiment, whereas for the aggregates dissolution assay they were added to Aβ42 fibrillar aggregates grown for 2 days. Upon incubating for a predetermined period, Aβ42 inhibitor samples were analyzed using ThT by measuring the fluorescence change at 485 nm as presented in FIG. 1(b) and FIG. 1(c), wherein the error bars represent the standard deviation (SD) of the fluorescence measurement. Fluorescence values were normalized to maximal fluorescence intensity at 485 nm compared to that of the control (Aβ42 with no inhibitor). Experiments were performed at various stoichiometric ratios (Aβ42/inhibitor) of 1:1, 1:2, and 1:5 with a fixed concentration of Aβ42 at 10 µM. Each experiment was repeated three times (n = 3). […] TGR 63 recorded 80% dissolution efficiency while TGR 64 and TGR 65 recorded 75% and 78% dissolution efficiency respectively, for the stoichiometric ratio of 1:5.

Aβ42 peptide = target: T2, Aβ42 peptide (Homo sapiens, UniProt P05067); assay: 1H NMR study of molecular interactions between TGR63 and Aβ42; type: binding; details: Aβ42 10 µM, D2O (12%) containing PBS, 24, 48 and 72 h
T2 construct: commercially available β-amyloid peptide (1-42), human; purchased marck (so in the source) PP69-.025 mg
Method: Nuclear magnetic resonance (NMR) spectroscopy was performed to ascertain the molecular level interactions between TGR63 and Aβ42 peptide. ^1H NMR spectra of TGR63 were acquired in absence and presence of Aβ42 (10 µM) peptides using the WATERGATE sequence for solvent suppression in deuterium oxide (D2O, 12%) containing PBS at different incubation time points (24, 48 and 72 h). […] The aromatic protons of NMI and aniline moieties (a-f) appeared at 6.5-8.8 ppm, respectively. However, the splitting patterns of all the aromatic peaks were completely readjusted undergoing a significant downfield shift over a period of time in the presence of Aβ42 peptide. This observation confirmed the interaction of aromatic moieties (π-electron rich) of TGR63 with native and misfolded Aβ42 peptides, which leads to alteration in the extent of nuclei and proximal electron coupling (J-couplings).

Full length tau = target: T3, Full length tau (Homo sapiens, UniProt P10636); assay: ThT fluorescence assay, inhibition of tau aggregation; type: biochemical; details: for ThT fluorescence signal compared with untreated controls (100%): tau 5 µM, heparin 1.25 µM, 72 h at 37° C.
T3 construct: Full length tau (5 µM) was incubated with TGR63
Text: Tau is a microtubule-associated proteins that interacts with tubulin and stimulates its assembly into microtubules. The extent of phosphorylation regulates the activity of tau protein and the hyperphosphorylation diminishes its physiological function leading to several neuronal disorders like AD and tauopathies. The self-aggregation of hyperphosphorylated tau form intracellular neurofibrillary tangles (NFTs) and paired helical filaments (PHFs) that impairs the axonal functions and degenerates neuronal cells. Considering the prominent role of tau in AD pathology, the self-aggregation and deposition of hyperphosphorylated tau became a potential target to tackle AD and related tauopathies. Effect of TGR63 on tau aggregation was assessed. Full length tau (5 µM) was incubated with TGR63 (5 and 25 µM) for 72 h at 37° C. in the presence of aggregation inducer (heparin; 1.25 µM). The extent of aggregation of incubated samples were assessed by ThT fluorescence (λex= 442 nm and λem=482 nm) assay. FIG. 25 depicts the inhibition of tau (5 µM) aggregation in presence of TGR63. As expected, the ThT fluorescence signal was increased by ~15 folds with compare to only ThT, which confirmed the formation of pathogenic tau aggregates.

Aβ42 = target: T4, Aβ42 (Homo sapiens, UniProt P05067); assay: ThT binding assay, inhibition of Aβ42 fibrillar assembly; type: biochemical
T4 construct: commercially available β-amyloid peptide (1-42), human; purchased marck (so in the source) PP69-.025 mg
Method: as §1
Initially, the ability of the prepared NMI compounds, TGR63-68 to inhibit Aβ42 fibrillar assembly at 1:1 molar ratio with Aβ42 fibrils was evaluated using thioflavin (ThT) binding assay. 10 µM of Aβ42 fibrils in the absence (Ctrl) and the presence of 10 µM of inhibitors individually were incubated for 72 h. A normalized data for fluorescence intensity (NFI) of ThT at 482 nm (λex = 442 nm) was measured as represented in FIG. 1(a).
as §2

T3 sequence (P10636 1-441 isoform P10636-8): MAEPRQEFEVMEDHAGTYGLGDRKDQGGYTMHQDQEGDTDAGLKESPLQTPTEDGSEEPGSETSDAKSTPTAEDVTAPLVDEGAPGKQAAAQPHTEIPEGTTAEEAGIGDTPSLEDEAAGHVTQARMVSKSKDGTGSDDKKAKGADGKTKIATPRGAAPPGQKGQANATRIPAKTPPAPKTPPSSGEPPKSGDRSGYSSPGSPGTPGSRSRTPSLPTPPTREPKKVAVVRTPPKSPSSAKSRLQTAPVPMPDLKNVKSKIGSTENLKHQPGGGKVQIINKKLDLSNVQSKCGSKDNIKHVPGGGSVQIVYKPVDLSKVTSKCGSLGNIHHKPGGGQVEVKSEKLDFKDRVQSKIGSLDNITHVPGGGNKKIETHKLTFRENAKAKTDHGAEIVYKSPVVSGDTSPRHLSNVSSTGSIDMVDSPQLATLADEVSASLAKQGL
T4 sequence (P05067 672-713 limits assumed): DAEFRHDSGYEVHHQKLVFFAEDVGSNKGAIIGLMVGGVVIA
T1 sequence (P05067 672-713 limits assumed): as above
T2 sequence (P05067 672-713 limits assumed): as above

## CN(C)c1ccc(C#Cc2ccc3c4c(cccc24)C(=O)N(CC[N+](C)(C)C)C3=O)cc1 [TGR63, 2-(6-((4-(dimethylamino)phenyl)ethynyl)-1,3-dioxo-1H-benzo[de]isoquinolin-2(3H)-yl)-N,N,N-trimethylethan-1-aminium]
[1]
  stability in blood serum (normalized absorbance at 450 nm): confirmed the stability of TGR63 in blood serum
[2]; Aβ42/inhibitor 1:1, Aβ42 10 µM
  dissolution efficiency: ~ 35%
[2]; Aβ42/inhibitor 1:2, Aβ42 10 µM
  dissolution efficiency: ~ 50%
[2]; Aβ42/inhibitor 1:5, Aβ42 10 µM
  dissolution efficiency: 80%
Aβ42 peptide
  interaction with Aβ42 peptides (1H NMR): interacts with native and misfolded Aβ42 peptides
Full length tau; TGR63 5 µM
  ThT fluorescence signal compared with untreated controls (100%): ~ 72%
Full length tau; TGR63 25 µM
  ThT fluorescence signal compared with untreated controls (100%): ~52%
Full length tau; tau:TGR63 1:1
  reduction of tau aggregates: ~ 28%
Full length tau; tau:TGR63 1:5
  reduction of tau aggregates: ~48%
Aβ42; 1:1 molar ratio, 10 µM Aβ42, 10 µM inhibitor, 72 h
  inhibitory effect on Aβ42 aggregation (ThT NFI at 482 nm): ~ 45%
Aβ42; Aβ42/inhibitor 1:1, Aβ42 10 µM, third day of incubation
  decrease in the formation of Aβ aggregates: ~ 50%
Aβ42; Aβ42/inhibitor 1:2, Aβ42 10 µM, third day of incubation
  Aβ aggregation decreased to: 75%
Aβ42; Aβ42/inhibitor 1:5, Aβ42 10 µM, third day of incubation
  Aβ aggregation decreased to: 90%
